Assay results reported in patent publication US6036957A, “Suppression of T-cell proliferation using peptide fragments of myelin basic protein” (Autoimmune, Inc., priority 1995, dated 2000).

Key:
[1] = system: MBP reactive T-cell lines; experiment: Reactivity of MBP-reactive T-cell lines to overlapping human MBP peptides (proliferation assay); type: cell-based; settings: for mean frequency of T-cell lines selectively reactive to the peptide, MS vs controls (FIG. 1): result in words
Method: A rapid T-cell cloning technique was used to examine whether there were immunodominant epitopes on human MBP reactive with Class II MHC phenotypes and the frequency of such reactivity. A total of 15,824 short term T-cell lines were generated from 51 human subjects by culturing peripheral blood mononuclear cells ([…]) with purified MBP (100 μg) followed 3 days later, and then every 3-4 days, by the addition of interleukin-2 (IL-2; from ABI, Columbia, Md.) and 2 units recombinant interleukin-4 (IL-4; Genzyme, Boston, Mass.). On Day 13 of culture, an aliquot from each line was tested for reactivity to MBP using the following proliferation assay: T-cell clones (1×10^5 cells/well) were plated in triplicate and cocultured with appropriate stimuli (i.e. 100 μg whole MBP or 5% IL-2) for 72 hours at 37° C., 90% humidity, 5% CO2, in 96 well flat bottomed microtiter plates (Costar). The cells were pulsed with 2 μCi [^3 H]TdR (2 Ci/mmole, New England Nuclear, Boston, Mass.) for the last 18 hours of culture. APCs were prepared by pulsing human Epstein-Barrvirus transformed human B-cells (the virus being commercially available from ATCC) or L-cells which are mouse cells transfected with human DR2 (L-cells are commercially available from ATCC under accession No. ATCC-CCL1 and can be transfected according to the method of Wilkinson, D. et al, J. Exp. Med., 1988, 167:1442-1458 using DNA encoding DR2 as per Wu, S. et al J. Immunol., 1987, 138:2953). B-cells or L-cells were used at 1×10^6 cells/well in complete media either in the presence or absence of 40 pM MBP or phospholipid protein (PLP) for 2 hours at 37° C., washing twice with 4° C. Hanks (Whittaker), followed by irradiation with 5000 rad. at 4° C. To stimulate T-cells without accessory APCs, 2 μM of MBP, PLP, or the appropriate fragment was added directly to the cells for the duration of the culture: 48 hours, followed by pulsing […] and then harvesting. Ten thousand APC's were used for 100,000 T-cell clones.
T-cell lines shown to be reactive to MBP or PLP were then tested using the same technique for reactivity to overlapping oligopeptide 20-mers encompassing the human MBP sequence as shown in Table 1 above. […]
Of a total of 302 cell lines from patients with MS that could be expanded and confirmed to react with MBP on repeated analysis, 140 (46.4%) reacted with MBP residues 84-102; and approximately 70-80% reacted with either MBP residues 84-102 or 143-168. […] The actual frequency of T-cells derived from the peripheral blood that reacted with each MBP peptide for each individual subject was calculated. […]

[2] = system: actively induced EAE; experiment: Suppression of actively induced EAE (immunization with MBP/CFA); type: in vivo, Lewis rats; settings: FIG. 7, words
[3] = system: short term T-cell lines generated from peripheral blood mononuclear cells; experiment: Frequency of MBP- and PLP-reactive short term T-cell lines (proliferation assay); type: cell-based, human; settings: mean +/-SEM
Method: A rapid T-cell cloning technique was used to examine whether there were immunodominant epitopes on human MBP reactive with Class II MHC phenotypes and the frequency of such reactivity. A total of 15,824 short term T-cell lines were generated from 51 human subjects by culturing peripheral blood mononuclear cells ([…]) with purified MBP (100 μg) followed 3 days later, and then every 3-4 days, by the addition of interleukin-2 (IL-2; from ABI, Columbia, Md.) and 2 units recombinant interleukin-4 (IL-4; Genzyme, Boston, Mass.). On Day 13 of culture, an aliquot from each line was tested for reactivity to MBP using the following proliferation assay: T-cell clones (1×10^5 cells/well) were plated in triplicate and cocultured with appropriate stimuli (i.e. 100 μg whole MBP or 5% IL-2) for 72 hours at 37° C., 90% humidity, 5% CO2, in 96 well flat bottomed microtiter plates (Costar). […]
Subjects with other central nervous system diseases had the following diagnoses: 1-3 weeks after either cerebrovascular accident (n=4), brain trauma with CNS hemorrhage (n=4), or metastatic brain tumor (n=2). […] In addition, the frequency of MBP and PLP-reactive lines was calculated separately for each subject by dividing the number of MBP-reactive lines by the total number of lines generated and the mean values +/-SEM are given. […]

FKGVDAQGTLSKIFKLGGRD [143-168, human MBP amino acid residues 143-168]
fraction of MBP reactive T-cell lines that recognized either the 84-102 or the 143-168 peptide ([1]; control groups, 100 lines): about 34% | fraction of MBP-reactive cell lines that reacted with either MBP residues 84-102 or 143-168 ([1]; patients with MS, 302 cell lines): 70-80% | mean frequency of T-cell lines selectively reactive to the peptide, MS vs controls (FIG. 1) [1]: both MS and control subjects showed high frequencies

guinea pig MBP peptide 131-150: Control guinea pig MBP peptide 131-150 (DYKSKGFKGAHDAQGTLSKI; UniProt P25188 131-150, looked up, fragment)
suppression of EAE via IV tolerization ([2]; administered intravenously prior to immunization): did not suppress | suppression of EAE via oral tolerization ([2]; administered orally prior to immunization): did not suppress

HHPARTAHYGSLPQKSEGRT [61-82]
mean frequency of T-cell lines selectively reactive to the peptide, MS vs controls (FIG. 1) [1]: Significant but less striking increases in reactivity

B1: PLP: proteolipid protein, myelin autoantigen (protein, UniProt P60201 2-277, looked up)
Myelin proteolipid protein: GLLECCARCLVGAPFASLVATGLCFFGVALFCGCGHEALTGTEKLIETYFSKNYQDYEYLINVIHAFQYVIYGTASFFFLYGALLLAEGFYTTGAVRQIFGDYKTTICGKGLSATVTGGQKGRGSRGQHQAHSLERVCHCLGKWLGHPDKFVGITYALTVVWLLVFACSAVPVYIYFNTWTTCQSIAFPSKTSASIGSLCADARMYGVLPWNAFPGKVCGSNLLSICKTAEFQMTFHLFIAAFVGAAATLVSLLTFMIAATYNFAVLKLMGRGTKF
MEAN FREQUENCY OF Ag REACTIVE LINES ([3]; MS patients (n = 23)): 3.34 ± 1.56 | MEAN FREQUENCY OF Ag REACTIVE LINES ([3]; other neurological disease (n=10)): 0.90
